The record followed here is patent US10544132B2, “Isoindolinone inhibitors of the MDM2-p53 interaction having anticancer activity” (ASTEX THERAPEUTICS LIMITED, priority 2015, dated 2020).

In experiment [1] the test system is SN40R2 cells. Nature of the experiment: SN40R2 growth inhibition, sulphorhodamine B (SRB) method (Protocol A). Conditions: 72 h, read-out: SN40R2 IC50 (μM) (Protocol A). In general terms: Sulforhodamine B stains cellular protein and so reports cell mass.
For experiment [2], the target named is MDM2-p53 interaction (Homo sapiens (Human), UniProt Q00987). Nature of the experiment: MDM2-p53 interaction 96-well plate binding assay (ELISA).
Chain of MDM2-p53 interaction (Q00987 whole entry): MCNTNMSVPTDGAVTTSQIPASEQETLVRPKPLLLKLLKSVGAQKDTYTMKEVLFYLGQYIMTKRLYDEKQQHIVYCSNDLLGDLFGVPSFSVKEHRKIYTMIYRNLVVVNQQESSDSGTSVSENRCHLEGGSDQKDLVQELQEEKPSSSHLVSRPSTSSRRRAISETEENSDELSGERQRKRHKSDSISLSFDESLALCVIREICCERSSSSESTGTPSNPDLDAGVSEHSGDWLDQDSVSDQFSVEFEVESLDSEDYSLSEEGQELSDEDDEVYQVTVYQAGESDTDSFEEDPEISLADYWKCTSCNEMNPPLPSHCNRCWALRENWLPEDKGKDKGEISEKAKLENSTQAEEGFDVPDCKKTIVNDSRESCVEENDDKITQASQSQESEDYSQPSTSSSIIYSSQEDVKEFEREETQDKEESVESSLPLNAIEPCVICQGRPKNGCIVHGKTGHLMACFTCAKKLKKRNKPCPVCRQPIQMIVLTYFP
Experiment [3] concerns SJSA-1 cells. Nature of the experiment: SJSA-1 growth inhibition, sulphorhodamine B (SRB) method (Protocol A). Particulars: Homo sapiens, SJSA-1, 72 h, read-out: SJSA-1 IC50 (μM) (Protocol A).

The IC50 is the midpoint of a concentration-inhibition curve.

On to `CC(C)(O)c1cc(F)c2c(c1)C(=O)N(Cc1ccc(Cl)cc1)[C@@]2(OCC1(CO)CC1)c1ccc(Cl)cc1` [Example 2, (3R)-3-(4-chlorophenyl)-2-[(4-chlorophenyl)methyl]-4-fluoro-3-{[1-(hydroxymethyl)cyclopropyl]methoxy}-6-(2-hydroxypropan-2-yl)-2,3-dihydro-1H-isoindol-1-one], for which the concentration for half-maximal inhibition (IC50) in experiment [1] amounted to 17 µM.
Turning to `[2H]C([2H])(O)C1(C([2H])([2H])O[C@]2(c3ccc(Cl)cc3)c3ccc(C(C)(C)O)cc3C(=O)N2Cc2ccc(Cl)cc2S(C)(=O)=O)CC1` [Example 36, (3R)-2-[(4-chloro-2-methanesulfonylphenyl)methyl]-3-(4-chlorophenyl)-3-({1-[hydroxy(^2H2)methyl]cyclopropyl}(^2H2)methoxy)-6-(2-hydroxypropan-2-yl)-2,3-dihydro-1H-isoindol-1-one], the IC50 in experiment [2] came to 0.0019 µM; in experiment [3], 0.078 µM; in experiment [1], 17 µM.
